Test results reported in patent publication US11918571B2, “Compounds and their methods of use” (Praxis Precision Medicines, Inc., priority 2017, dated 2024).

Target: T1, human Nav1.6 (hNav1.6) (Homo sapiens, UniProt Q9UQD0)
T1 construct: expressed in transfected cells; host or cells: HEK-293 (G418 selection)
Test: Modulation of late sodium current (INaL), PatchXpress electrophysiology, ATX-II evoked
Assay type: cell-based
Conditions: HEK293; 1 μM compound; HEK-293 cells expressing recombinant human Nav1.6; late current evoked by 300 nM ATX-II; read-out: INaL v1.6 (1 μM, % Inhibition)
Procedure: Functional characterization of exemplary compounds to modulate INaL expressed by the Nav1.6 voltage-gated sodium channel was accomplished using the PatchXpress™ high throughput electrophysiology platform (Molecular Devices, Sunnyvale, CA). HEK-293 cells expressing recombinant, human Nav1.6 (hNav1.6) were grown in DMEM/high-glucose Dulbecco's modified, 10% FBS, 2 mM sodium pyruvate, 10 mM HEPES and 400 μg/mL G418. Cells were grown to 50%-80% confluency prior to harvesting. Trypsinized cells were washed, allowed to recover for 1 hour and then resuspended in extracellular recording solution at a concentration of 1×10^6 cells/ml. The onboard liquid handling facility of the PatchXpress was used for dispensing cells and applying test compounds. Nay late currents were evoked by the application of 300 nM ATX-II. INaL was evoked by depolarizing pulses to 0 mV for 200 ms from a non-inactivating holding potential (e.g., −120 mV) at a frequency of 0.1 Hz. INaL amplitude and stability were determined by analyzing the mean current amplitude over the final 20 ms of the test pulse. Following steady state block with exemplary compounds (e.g., as described herein), a Na^+ free solution containing an impermeant cation (e.g., Choline or NDMG) was added to confirm the identify of the sodium current.
Results from this assay relating to percent inhibition of INaL at hNaV1.6 (measured using a procedure similar to described above but using HEK-293 cells expressing recombinant, human Nay 1.6 (h Nay 1.6) at 1 μM are summarized in Table 1 below. In this table, “A” indicates inhibition of less than 30%; “B” indicates inhibition of between about 30% to about 70%; and “C” indicates inhibition of greater than 70%.

T1 sequence (Q9UQD0 whole entry): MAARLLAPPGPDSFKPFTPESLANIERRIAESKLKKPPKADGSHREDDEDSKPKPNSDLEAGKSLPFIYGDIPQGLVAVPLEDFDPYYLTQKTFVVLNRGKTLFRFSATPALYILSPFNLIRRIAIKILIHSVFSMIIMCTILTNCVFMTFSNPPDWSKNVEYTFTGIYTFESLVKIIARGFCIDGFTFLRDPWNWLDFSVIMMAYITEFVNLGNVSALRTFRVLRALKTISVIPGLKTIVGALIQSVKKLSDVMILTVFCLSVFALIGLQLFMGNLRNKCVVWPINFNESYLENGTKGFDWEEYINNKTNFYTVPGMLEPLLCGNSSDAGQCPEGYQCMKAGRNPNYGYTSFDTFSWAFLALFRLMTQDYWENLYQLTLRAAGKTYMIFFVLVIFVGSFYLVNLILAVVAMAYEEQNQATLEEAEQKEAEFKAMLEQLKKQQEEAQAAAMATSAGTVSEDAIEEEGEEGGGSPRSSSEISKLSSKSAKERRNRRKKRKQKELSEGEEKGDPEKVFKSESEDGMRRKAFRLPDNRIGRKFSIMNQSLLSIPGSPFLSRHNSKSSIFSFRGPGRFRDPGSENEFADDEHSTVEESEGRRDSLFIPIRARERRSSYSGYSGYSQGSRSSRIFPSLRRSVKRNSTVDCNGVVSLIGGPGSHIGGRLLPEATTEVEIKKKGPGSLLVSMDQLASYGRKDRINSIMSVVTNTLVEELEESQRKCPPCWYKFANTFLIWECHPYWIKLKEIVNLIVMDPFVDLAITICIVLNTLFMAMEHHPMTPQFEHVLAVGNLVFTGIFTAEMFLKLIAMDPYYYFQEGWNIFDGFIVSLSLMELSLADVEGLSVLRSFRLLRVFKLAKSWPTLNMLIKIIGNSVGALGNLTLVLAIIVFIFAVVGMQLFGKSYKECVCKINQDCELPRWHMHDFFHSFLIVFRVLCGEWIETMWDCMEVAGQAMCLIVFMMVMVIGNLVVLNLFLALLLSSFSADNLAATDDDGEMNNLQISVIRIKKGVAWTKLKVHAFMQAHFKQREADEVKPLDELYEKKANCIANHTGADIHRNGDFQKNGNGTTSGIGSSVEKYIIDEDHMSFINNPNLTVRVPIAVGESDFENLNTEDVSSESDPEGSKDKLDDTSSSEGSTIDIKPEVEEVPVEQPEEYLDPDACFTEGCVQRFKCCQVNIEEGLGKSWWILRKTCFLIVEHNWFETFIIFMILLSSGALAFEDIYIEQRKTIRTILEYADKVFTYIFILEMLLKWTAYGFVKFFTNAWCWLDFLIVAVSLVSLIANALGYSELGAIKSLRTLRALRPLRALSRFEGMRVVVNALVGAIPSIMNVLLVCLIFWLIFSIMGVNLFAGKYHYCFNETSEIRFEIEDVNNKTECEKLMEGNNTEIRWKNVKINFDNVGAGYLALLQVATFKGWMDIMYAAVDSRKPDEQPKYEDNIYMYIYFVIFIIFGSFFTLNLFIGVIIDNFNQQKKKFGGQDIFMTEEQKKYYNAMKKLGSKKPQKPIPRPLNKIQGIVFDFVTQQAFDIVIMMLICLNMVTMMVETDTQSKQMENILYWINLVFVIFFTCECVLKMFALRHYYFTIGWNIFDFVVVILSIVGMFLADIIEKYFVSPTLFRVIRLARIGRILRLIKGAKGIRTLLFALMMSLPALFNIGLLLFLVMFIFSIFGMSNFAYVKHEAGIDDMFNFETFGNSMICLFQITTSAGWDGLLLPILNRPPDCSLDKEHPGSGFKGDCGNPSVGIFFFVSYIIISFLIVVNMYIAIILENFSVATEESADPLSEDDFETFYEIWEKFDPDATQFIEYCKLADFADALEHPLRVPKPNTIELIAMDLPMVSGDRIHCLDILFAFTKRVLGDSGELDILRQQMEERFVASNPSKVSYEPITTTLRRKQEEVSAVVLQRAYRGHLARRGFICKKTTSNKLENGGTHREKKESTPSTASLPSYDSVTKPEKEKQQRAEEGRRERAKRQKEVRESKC

| SMILES | inhibition at 1 µM |
| --- | --- |
| FC1(F)C[C@@H]1c1ccc(-c2ccn3nncc3c2)cc1 (single isomer, unassigned) [Compound 23-1] | 30 to 70% |
| FC1(F)C[C@H]1c1ccc(-c2ccn3nncc3c2)cc1 (single isomer, unassigned) [Compound 23-2] | > 70% |
| Cc1cc(OC(F)(F)F)ccc1-c1ccn2nncc2c1 [Compound 1, 5-[2-methyl-4-(trifluoromethoxy)phenyl]triazolo[1,5-a]pyridine] | 30 to 70% |
| COCc1cc(OC(F)(F)F)ccc1-c1ccn2nncc2c1 [Compound 2] | > 70% |
| Cc1cc(OC(F)(F)F)ccc1-c1ccn2nnc(C)c2c1 [Compound 3] | > 70% |
| Cc1cc(OC(F)(F)F)ccc1-c1ccn2nnc(C(F)(F)F)c2c1 [Compound 4] | > 70% |
| Cc1cc(OC(F)(F)F)ccc1-c1cc(C)n2nncc2c1 [Compound 5] | > 70% |
| Cc1nnn2ccc(-c3ccc(C4(C#N)CC4)cc3)cc12 [Compound 6] | 30 to 70% |
| Cc1nnn2ccc(-c3ccc(OC(F)(F)F)cc3)cc12 [Compound 7] | > 70% |
| Cc1nnn2ccc(-c3cnc(OCC(F)(F)F)c(F)c3)cc12 [Compound 8] | 30 to 70% |
| FC(F)(F)Oc1ccc(-c2ccn3nncc3c2)cc1 [Compound 9] | > 70% |
| Fc1cc(-c2ccn3nncc3c2)cnc1OCC(F)(F)F [Compound 10] | 30 to 70% |
| Fc1cc(-c2ccn3nncc3c2)cnc1OC1CC(F)(F)C1 [Compound 11] | > 70% |
| Cc1nnn2ccc(-c3cnc(OC4CC(F)(F)C4)c(F)c3)cc12 [Compound 12] | > 70% |
| COCc1nnn2ccc(-c3ccc(OC(F)(F)F)cc3C)cc12 [Compound 13] | > 70% |
| FC(F)Oc1ccc(-c2ccn3nncc3c2)cc1 [Compound 14] | 30 to 70% |
| FC(F)(F)COc1ccc(-c2ccn3nncc3c2)cn1 [Compound 15] | > 70% |
| COCc1cc(-c2ccn3nncc3c2)ccc1OC(F)(F)F [Compound 16] | 30 to 70% |
| C[C@@H](Oc1ncc(-c2ccn3nncc3c2)cc1F)C(F)(F)F [Compound 17, 5-[5-fluoro-6-[(1R)-2,2,2-trifluoro-1-methyl-ethoxy]-3-pyridyl]triazolo[1,5-a]pyridine] | > 70% |
| C[C@H](Oc1ncc(-c2ccn3nncc3c2)cc1F)C(F)(F)F [Compound 18, 5-[5-fluoro-6-[(15)-2,2,2-trifluoro-1-methyl-ethoxy]-3-pyridyl]triazolo[1,5-a]pyridine] | > 70% |
| COCc1nnn2ccc(-c3cnc(OCC(F)(F)F)c(F)c3)cc12 [Compound 20] | 30 to 70% |
| Cc1nnn2ccc(-c3cnc(O[C@H](C)C(F)(F)F)c(F)c3)cc12 [Compound 21] | > 70% |
| Cc1nnn2ccc(-c3cnc(O[C@@H](C)C(F)(F)F)c(F)c3)cc12 [Compound 22] | > 70% |

| SMILES | inhibition at 1 µM |
| --- | --- |
| CC(C)(Oc1ncc(-c2ccn3nncc3c2)cc1F)C(F)(F)F [Compound 24] | > 70% |
| Cc1nnn2ccc(-c3cnc(OC(C)(C)C(F)(F)F)c(F)c3)cc12 [Compound 25] | > 70% |
| COCc1nnn2ccc(-c3cnc(OC(C)(C)C(F)(F)F)c(F)c3)cc12 [Compound 26] | > 70% |
| COCc1nnn2ccc(-c3cnc(O[C@@H](C)C(F)(F)F)c(F)c3)cc12 [Compound 27] | > 70% |
| COCc1nnn2ccc(-c3cnc(OC4(C(F)(F)F)CCC4)c(F)c3)cc12 [Compound 29] | > 70% |
| C[C@@H](Oc1ncc(-c2ccn3nnc(C(F)(F)F)c3c2)cc1F)C(F)(F)F [Compound 30] | > 70% |
| C[C@H](Oc1ncc(-c2ccn3nnc(C(F)(F)F)c3c2)cc1F)C(F)(F)F [Compound 31] | > 70% |
| [2H]c1nnn2ccc(-c3cnc(O[C@H](C)C(F)(F)F)c(F)c3)cc12 [Compound 32] | > 70% |
| [2H]c1nnn2ccc(-c3cnc(O[C@@H](C)C(F)(F)F)c(F)c3)cc12 [Compound 33] | > 70% |
| [2H]c1nnn2ccc(-c3cnc(OCC(F)(F)F)c(F)c3)cc12 [Compound 34] | > 70% |
| [2H]c1nnn2ccc(-c3cnc(OC(C)(C)C(F)(F)F)c(F)c3)cc12 [Compound 35] | > 70% |
| [2H]c1nnn2ccc(-c3cnc(OC4(C(F)(F)F)CCC4)c(F)c3)cc12 [Compound 36] | > 70% |
| C[C@@H](Oc1ncc(-c2ccn3nnc(C(F)F)c3c2)cc1F)C(F)(F)F [Compound 37] | > 70% |
| C[C@H](Oc1ncc(-c2ccn3nnc(C(F)F)c3c2)cc1F)C(F)(F)F [Compound 38] | > 70% |
| CC(C)(Oc1ncc(-c2ccn3nnc(C(F)F)c3c2)cc1F)C(F)(F)F [Compound 39] | > 70% |
| [2H]C([2H])([2H])OCc1nnn2ccc(-c3cnc(OC(C)(C)C(F)(F)F)c(F)c3)cc12 [Compound 40] | > 70% |
| [2H]C([2H])(OC)c1nnn2ccc(-c3cnc(OC(C)(C)C(F)(F)F)c(F)c3)cc12 [Compound 41] | > 70% |
| [2H]C([2H])([2H])c1nnn2ccc(-c3cnc(OC(C)(C)C(F)(F)F)c(F)c3)cc12 [Compound 42] | > 70% |
| COc1cc(OC(F)(F)F)ccc1-c1ccn2nnc(C)c2c1 [Compound 43] | > 70% |
| Cc1cc(-c2cnc(O[C@H](C)C(F)(F)F)c(F)c2)cc2cnnn12 [Compound 44] | 30 to 70% |
| Cc1cc(-c2cnc(O[C@@H](C)C(F)(F)F)c(F)c2)cc2cnnn12 [Compound 45] | > 70% |
| Cc1cc(-c2cnc(OCC(F)(F)F)c(F)c2)cc2cnnn12 [Compound 46] | 30 to 70% |
